# Results: PubChem BioAssay AID1259427 (Fisher Drug Discovery Resource Center, 2018)
# Active and inactive are the calls of the source.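 How the source made its calls: active means EC50 at or below a set limit, with no effect in the paired counter-screen assay; inactive means the rest.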
# Target: Aedes aegypti neuropeptide Y-like receptor 7 (NPYLR7)
# Test: NPYLR7 activation potency in cells – cell-based, Aedes aegypti, hit validation, mosquito biting behavior, confirmation (AID 1259427);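 further: potency of agonists that activate the receptor and raise the calcium signal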
# Settings: HEK293T NPYLR7/Galpha15/GCaMP6s, calcium fluorescence
row,Compound,EC50
1,CCOc1cc(/C=C2\C(=N)N3N=CSC3=NC2=O)cc(Br)c1OC(=O)c1ccccc1,inactive
2,CCC(CO)[n+]1c(C)cc(C=C2Sc3ccccc3N2CC)cc1C (centres undefined),inactive
3,N#C/C(=C/c1ccc(N2CCCCCC2)o1)c1ccc(F)cc1,> 20 µM (inactive)
4,CCOC(=O)C1=C(O)/C(=C\c2ccc(N(C)C)cc2)SC1=Nc1ccc(OC)cc1OC,> 20 µM (inactive)
5,COc1ccc(OC)c(CCNc2nc3cnc(-c4ccc5c(c4)OCO5)cc3n2C)c1,8.34 µM
6,Cc1cc(C=C2Sc3ccccc3N2C)cc(C)[n+]1-c1ccccc1,inactive
7,C=CCNc1ccc2c3c(cccc13)C(=O)N(c1ccccc1)C2=O,inactive
8,CCOC(=O)c1nc2ccccc2nc1N1CCN(C(=O)N2CCOCC2)CC1,> 20 µM (inactive)
9,O=C1CSC(=S)N1N=Cc1cc(Br)c(O)c(Br)c1,inactive
10,CC(C)Nc1ccc(NS(=O)(=O)NCc2ccccc2)cn1,> 20 µM (inactive)
11,CN=c1nc(-c2ccccc2)n(-c2ccccc2)s1,19.9 µM
12,O=C1NC(c2ccc3c(c2)OCO3)C(C(=O)c2ccccc2)C(O)(C(F)(F)F)N1 (centres undefined),> 20 µM (inactive)
13,CCCS(=O)(=O)N1CCN=C1SCc1ccccc1C,> 20 µM (inactive)
14,COc1cc(OC)cc(C(=O)N2CCN(C(C(=O)Nc3ccc(NC(C)=O)cc3)C3CCCC3)CC2)c1 (centres undefined),> 20 µM (inactive)
15,CCOc1cc(/C=C(\C#N)c2nc3ncc(Br)cc3[nH]2)ccc1O,inactive
16,CSc1nnc2c(n1)OC(c1ccc(OC(=O)c3ccc(Br)cc3)cc1)Nc1ccccc1-2 (centres undefined),> 20 µM (inactive)
17,O=C(N=Nc1c(O)[nH]c2ccc(Br)cc12)c1ccccc1Cl,> 20 µM (inactive)
18,CCOc1cc(C=O)c(O)c(C=O)c1,inactive
19,Cc1ccc(OCCNC(=O)N2CCN(S(=O)(=O)c3ccccc3Cl)CC2)c(C)c1,> 20 µM (inactive)
20,CNC(=O)c1cnc(/C=C/c2csc(-c3ccsc3)n2)[nH]c1=O,> 20 µM (inactive)
21,Cc1ccc(NC2C=CS(=O)(=O)C2)cc1C (centres undefined),> 20 µM (inactive)
22,NS(=O)(=O)c1ccc(NC(NC(=O)c2ccco2)C(=O)c2ccc(Cl)cc2)cc1 (centres undefined),> 20 µM (inactive)
23,CCCCNC(=O)CCCCCNC(N)=O,> 20 µM (inactive)
24,CCN(CC)c1ccc(/C=C2/SC(=S)N(CC(=O)O)C2=O)cc1,inactive
25,CCN(CC)C1=CC2=CC(=C(C#N)C#N)CCC2CC1 (centres undefined),< 0.039 µM (inactive)

row,Compound,EC50
1,CCOc1ccc(/C=C2N=C(/C=C/c3ccccc3)OC/2=O)cc1,> 20 µM (inactive)
2,OCCN(CCO)c1nc(N2CCCCC2)c2nc(N(CCO)CCO)nc(N3CCCCC3)c2n1,inactive
3,O=C(O)c1[nH]ncc1CN1CCc2onc(-c3ccc(C(F)(F)F)cc3)c2C1,> 20 µM (inactive)
4,CCN(CC)c1ccc2cc(C(N)=O)/c(=N\NC(N)=S)oc2c1,< 0.039 µM (inactive)
5,NC(=S)N/N=c1\oc2cc(O)ccc2cc1-c1nc2ccccc2[nH]1,inactive
6,O=C1c2ccccc2-c2nn(CN3CCN(c4ccccc4)CC3)c3cccc1c23,> 20 µM (inactive)
7,Cn1c(/C(C#N)=C/c2ccc(N3CCOCC3)o2)nc2ccccc21,14.9 µM
8,O=c1cc(C(F)(F)F)c2ccc(O)cc2o1,inactive
9,CCCc1nn2c(N)c(C=C3C=C(Cl)C(=O)C(Cl)=C3)c(=O)nc2s1,> 20 µM (inactive)
10,COc1cc(C=C2SC(=S)NC2=O)cc(Br)c1O,inactive
11,O=C(O)CN1C(=O)/C(=C/c2cc(Br)c(O)c(Br)c2)SC1=S,inactive
12,CCOC(=O)N1CCC(NC(=O)c2sc3nc4c(c(C(F)(F)F)c3c2N)CC(C)CC4)CC1 (centres undefined),> 20 µM (inactive)
13,CCNC(=O)[C@H]1O[C@@H](n2cnc3c(N)ncnc32)C(O)[C@H]1O (some centres undefined),inactive
14,CCN1CC(=Cc2cc(C)n(C3CC3)c2C)C(=O)C(=Cc2cc(C)n(C3CC3)c2C)C1,> 20 µM (inactive)
15,CCCCCN=C(N)NN=Cc1c[nH]c2ccc(OC)cc12,7.37 µM
16,CC1(C)CC(c2[nH]cnc2-c2ccccc2)CCO1 (centres undefined),> 20 µM (inactive)
17,CS(=O)(=O)c1ccc(-c2cccc3c2OC(CNC(=O)c2cc[n+]([O-])cc2)C3)cc1 (centres undefined),17.1 µM
18,CN1C(=CC=C2C(=O)Oc3ccccc3C2=O)C(C)(C)c2ccccc21,inactive
19,C=CCN1C(=O)C(Cc2ccc(OC)cc2)S/C1=N/N=C\c1cccs1 (centres undefined),> 20 µM (inactive)
20,C=CCN1C=CC(=CC=C(C#N)C#N)C=C1,inactive
21,COc1cc(C(=O)N2CCOC(c3ccccc3)C2)cc(OC)c1C (centres undefined),> 20 µM (inactive)
22,CCCc1[nH]n(-c2ccc(Cl)c(Cl)c2)c(=O)c1/C=C1\NC(=O)N(Cc2ccc(C)cc2)C1=O,> 20 µM (inactive)
23,O=C1/C(=C/c2cc3ccccc3o2)Oc2cc(O)ccc21,> 20 µM (inactive)
24,CCCc1ccccc1N1C(=O)CSC1c1ccc(NC(=O)CCl)cc1 (centres undefined),> 20 µM (inactive)
25,O=C(O)c1csc(CSc2nnc(-c3ccncc3)n2-c2cccc(C(F)(F)F)c2)n1,> 20 µM (inactive)

row,Compound,EC50
1,CCOc1cccc(C=C2Oc3cc(O)ccc3C2=O)c1OC,> 20 µM (inactive)
2,CC[n+]1c(/C=C/C=C2/N(C)c3ccccc3C2(C)C)sc2ccccc21,> 20 µM (inactive)
3,Nc1ncnc2c1ncn2[C@@H]1O[C@H](CO)[C@@H](O)[C@H]1O,inactive
4,CCCCN(C)C1=CC2=CC(=C(C#N)C#N)CCC2CC1 (centres undefined),< 0.039 µM (inactive)
5,CCOC(=O)c1c(-c2ccccc2)csc1N=Cc1nc(-c2ccccc2)oc1O,> 20 µM (inactive)
6,CCN(CC)c1ccc2c(-c3ccccc3C(=O)O)c3ccc(=[N+](CC)CC)cc-3oc2c1,inactive
7,N#C/C(=C\c1ccc(O)c(O)c1)C(=O)NCCCc1ccccc1,17.4 µM
8,Cc1ccc(CNC(=O)NC(c2ccc3c(c2)OCCCO3)C(C)C)cc1F (centres undefined),> 20 µM (inactive)
9,CC1=NCCc2c1[nH]c1cc(O)ccc21,inactive
10,CCn1c(O)c(C=Nc2c(C#N)c(C)c(C)n2C2CCCCC2)c(=O)n(CC)c1=S,inactive
11,Cc1ccc(C(=O)C=Cc2ccc(N(C)C)cc2)o1,< 0.039 µM (inactive)
12,COc1ccc(N2CCN(c3cc(C(F)(F)F)nc(SCc4cccc(C(=O)NCc5ccccn5)c4)n3)CC2)cc1,> 20 µM (inactive)
13,COc1cc(/C=C2\SC(=S)N(C(C)C(=O)O)C2=O)ccc1O (centres undefined),inactive
14,Cc1nc2ncccc2cc1C(=O)N1CCC2(CCNC(=O)CC2)CC1,> 20 µM (inactive)
15,C#CCN1C(=O)SC(=Cc2ccc(N3CCCCC3)o2)C1=O,inactive
16,CC1CN(c2ccc(/C=C(\C#N)c3nc4ccccc4[nH]3)o2)CC(C)O1 (centres undefined),> 20 µM (inactive)
17,COC(=O)C(C)Sc1nc2sc3c(c2c(=O)n1C)CCC3 (centres undefined),> 20 µM (inactive)
18,COc1cc(C=C(C#N)C(=O)OC(C)C)cc(Cl)c1O,> 20 µM (inactive)
19,CC(C)c1nc(NC(=O)c2[nH]ncc2Br)n(C)n1,inactive
20,CC1=CC(C)C(C(=O)O)C(C(=O)O)C1 (centres undefined),> 20 µM (inactive)
21,O=C(O)CSc1ccc2c3c(cccc13)C(=O)c1ccccc1-2,inactive
22,CNCC(O)c1ccc(O)c(O)c1 (centres undefined),inactive
23,O=c1nc2sc3[nH]c(=O)sc3cc-2s1,< 0.039 µM (inactive)
24,O=c1[nH]c(SCCO)nc2sc3c(c12)CCCC3,> 20 µM (inactive)
